Measurements: publication PMC6631792, “In Vitro and In Vivo Anti-Breast Cancer Activities of Some Newly Synthesized 5-(thiophen-2-yl)thieno-[2,3-d]pyrimidin-4-one Candidates” (Molecules, 2019)

What was measured:
MCF-7 cells = experiment: MTT cytotoxic assay on MCF-7 cells; assay type: cell-based, Human; details: Homo sapiens, MCF7
From the text: “Human breast cancer cells (MCF-7) and normal non-tumorigenic MCF-10A cells were used throughout the work. Cells were obtained from ATCC, Gaithersburg, MD, USA. Standard MTT assay was used to explore the possible cytotoxic effects of the synthesized compounds [41, 42]. Medium composition, cultivation conditions and assay performance were exactly the same as our previous work. […] After MTT addition, the absorbance of the dissolved formazan crystals was read at 570 nm. The IC50 values were obtained with linear regression equations using Origin® 6.1 software (Origin Lab Corporation, Northampton, MA, USA)”.

[1] = Average animal weight in MCF-7 mouse xenograft model; assay type: in vivo; details: nude mice with MCF-7 xenograft, i.p.; for Average Weight of Animals in Grams after Days 0: day 0; for Average Weight of Animals in Grams after Days 2: day 2; for Average Weight of Animals in Grams after Days 4: day 4; for Average Weight of Animals in Grams after Days 6: day 6; for Average Weight of Animals in Grams after Days 8: day 8; for Average Weight of Animals in Grams after Days 10: day 10; for Average Weight of Animals in Grams after Days 12: day 12; for Average Weight of Animals in Grams after Days 14: day 14; for Average Weight of Animals in Grams after Days 16: day 16; for Average Weight of Animals in Grams after Days 18: day 18; for Average Weight of Animals in Grams after Days 20: day 20; for Average Weight of Animals in Grams after Days 22: day 22
From the text: “In this work, MCF-7 mouse xenograft model was used. The animal protocol was approved by the Institutional Animal Use Ethics and Care Committee of the University of Alabama at Birmingham (50-01-05-08B). Female athymic pathogen-free nude mice (nu/nu, 4–6 weeks) were purchased from Frederick Cancer Research and Development Center (Frederick, MD, USA). To establish MCF-7 human breast cancer xenografts, each of the female nude mice was first implanted with a 60-day (subcutaneously, s.c.) slow release estrogen pellet (SE-121, 1.7 mg […]/pellet; Innovative Research of America, Sarasota, FL, USA). After 24 h, grown cells were harvested, washed twice with serum-free medium, resuspended, and injected subcutaneously (5 million cells/0.2 mL) into the left inguinal area of the mice. During the experiment, animals were checked periodically and the percentages of tumor growth, as well as animal weights, were recorded. Every 48 h, the size of the tumor was recorded by measuring two perpendicular diameters of the tumor and tumor volume was calculated according to Wang et al. [46]”.
“Treated animals and control groups (7–10 mice/group) received different compounds and vehicles, respectively. The tested compounds were dissolved in PEG400:ethanol:saline (57.1:14.3:28.6, v/v/v), and injected intraperitoneal (i.p.) at doses of […], 3 d/wk for 3 weeks. The higher dose (10 µM/kg/d, 3 d/wk) inhibited MCF-7 xenograft tumor growth”.

melting point | Average Weight of Animals in Grams after Days 0 [1] | Average Weight of Animals in Grams after Days 2 [1] | Average Weight of Animals in Grams after Days 4 [1] | Average Weight of Animals in Grams after Days 6 [1] | Average Weight of Animals in Grams after Days 8 [1] | Average Weight of Animals in Grams after Days 10 [1] | Average Weight of Animals in Grams after Days 12 [1] | Average Weight of Animals in Grams after Days 14 [1] | Average Weight of Animals in Grams after Days 16 [1] | Average Weight of Animals in Grams after Days 18 [1] | Average Weight of Animals in Grams after Days 20 [1] | Average Weight of Animals in Grams after Days 22 [1] | Compound | IC50 (MCF-7 cells)
205 to 207 °C | 24.2 Grams | 24.2 Grams | 24.1 Grams | 24.0 Grams | 23.9 Grams | 23.9 Grams | 23.7 Grams | 23.7 Grams | 23.6 Grams | 23.6 Grams | 23.6 Grams |  | NNC(=O)Cn1cnc2scc(-c3cccs3)c2c1=O [Compound 4, 2-(4-oxo-5-(thiophen-2-yl)thieno[2,3-d]pyrimidin-3(4H)-yl)acetohydrazide] | 4.87 ± 0.098 µM
248 to 250 °C | 23.7 Grams | 23.7 Grams | 23.6 Grams | 23.6 Grams | 23.5 Grams | 23.5 Grams | 23.5 Grams | 23.4 Grams | 23.4 Grams | 23.5 Grams | 23.5 Grams | 23.5 Grams | COc1cccc(C=NNC(=O)Cn2cnc3scc(-c4cccs4)c3c2=O)c1OC [Compound 6, N′-(2,3-Dimethoxybenzylidene)-2-(4-oxo-5-(thiophen-2-yl)thieno[2,3-d]pyrimidin-3(4H)-yl)-acetohydrazide] | 4.52 ± 0.085 µM
250 to 252 °C | 27.3 Grams | 27.3 Grams | 27.2 Grams | 27.2 Grams | 27.2 Grams | 27.1 Grams | 27.1 Grams | 27.1 Grams | 27.0 Grams | 27.0 Grams | 27.0 Grams | 27.0 Grams | O=C(Cn1cnc2scc(-c3cccs3)c2c1=O)NN=Cc1ccc(Cl)cc1 [Compound 7, N′-(4-Chlorobenzylidene)-2-(4-oxo-5-(thiophen-2-yl)thieno[2,3-d]pyrimidin-3(4H)-yl)acetohydrazide] | 4.33 ± 0.076 µM
175 to 177 °C | 24.1 Grams | 24.1 Grams | 24.0 Grams | 24.0 Grams | 24.0 Grams | 24.0 Grams | 23.7 Grams | 23.7 Grams | 23.6 Grams | 23.6 Grams | 23.6 Grams | 23.6 Grams | O=C(Cn1cnc2scc(-c3cccs3)c2c1=O)NN1C(=O)CSC1c1ccc(Cl)cc1 (centres unmarked) [Compound 9, N-(2-(4-Chlorophenyl)-4-oxothiazolidin-3-yl)-2-(4-oxo-5-(thiophen-2-yl)thieno[2,3-d]-pyrimidin-3(4H)-yl)-acetamide] | 2.37 ± 0.053 µM
 | 26.6 Grams | 26.6 Grams | 26.6 Grams | 26.5 Grams | 26.6 Grams | 26.6 Grams | 26.4 Grams | 26.3 Grams | 26.3 Grams | 26.3 Grams | 26.3 Grams |  | O=C(Cn1cnc2scc(-c3cccs3)c2c1=O)NN1C(=O)CSC1=Nc1ccccc1 [Compound 11, N-(4-oxo-2-(phenylimino)thiazolidin-3-yl)-2-(4-oxo-5-(thiophen-2-yl)thieno[2,3-d]-pyrimidin-3(4H)-yl)acetamide] | 2.48 ± 0.054 µM
 | 27.4 Grams | 27.4 Grams | 27.4 Grams | 27.3 Grams | 27.3 Grams | 27.3 Grams | 27.2 Grams | 27.2 Grams | 27.2 Grams | 27.1 Grams | 27.1 Grams | 27.1 Grams | Cc1cc(=O)n(C(=O)Cn2cnc3scc(-c4cccs4)c3c2=O)[nH]1 [Compound 12, 3-(2-(3-methyl-5-oxo-2,5-dihydro-1H-pyrazol-1-yl)-2-oxoethyl)-5-(thiophen-2-yl)thieno-[2,3-d]pyrimidin-4(3H)-one] | 3.36 ± 0.063 µM
 | 25.4 Grams | 25.4 Grams | 25.4 Grams | 25.4 Grams | 25.4 Grams | 25.3 Grams | 25.3 Grams | 25.3 Grams | 25.3 Grams | 25.3 Grams | 25.3 Grams | 25.3 Grams | CC(=O)NNC(=O)Cn1cnc2scc(-c3cccs3)c2c1=O [Compound 13, N′-acetyl-2-(4-oxo-5-(thiophen-2-yl)thieno[2,3-d]pyrimidin-3(4H)-yl)aceto-hydrazide] | 3.64 ± 0.074 µM
 | 26.5 Grams | 26.4 Grams | 26.3 Grams | 26.2 Grams | 26.1 Grams | 25.9 Grams | 25.9 Grams | 25.9 Grams | 25.8 Grams | 25.8 Grams | 25.7 Grams | 25.7 Grams | Nc1cc(O)cc(=O)n1NC(=O)Cn1cnc2scc(-c3cccs3)c2c1=O [Compound 14, N-(6-Amino-4-hydroxy-2-oxopyridin-1(2H)-yl)-2-(4-oxo-5-(thiophen-2-yl)thieno[2,3-d]-pyrimidin-3(4H)-yl)acetamide] | 1.19 ± 0.042 µM
 | 26.1 Grams | 26.1 Grams | 26.1 Grams | 25.8 Grams | 25.8 Grams | 25.7 Grams | 25.7 Grams | 25.6 Grams | 25.6 Grams | 25.5 Grams | 25.5 Grams | 25.2 Grams | NC1=CC(N)N(NC(=O)Cn2cnc3scc(-c4cccs4)c3c2=O)C=C1 (centres unmarked) [Compound 15, N-(2,4-Diaminopyridin-1(2H)-yl)-2-(4-oxo-5-(thiophen-2-yl)thieno[2,3-d]-pyrimidin-3(4H)-yl)acetamide] | 1.18 ± 0.032 µM
